# The supplement of paper PMC10307832
# Experiments:
# Experiment in all cases: relative viability (nuclei count vs DMSO), 5 days (fraction); higher = more cells survive
# [1] = tested on: 201T
# Method in brief: (§1)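 Five library-drug doses in √10 steps were combined with a fixed anchor-drug dose, or a single drug was given alone, by pin tool to lung cancer cell lines in 1536-well plates the day after seeding. Nuclei were stained and counted after 5 days. Relative viability is the nuclei count in treated wells over that in vehicle wells, taken as the median of duplicate plates.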
# [2] = tested on: ABC-1
# Method in brief: as §1
# [3] = tested on: BEN
# Method in brief: as §1
# [4] = tested on: CAL-12T
# Method in brief: as §1
# [5] = tested on: COR-L 105
# Method in brief: as §1
# [6] = tested on: COR-L23
# Method in brief: as §1
# [7] = tested on: EKVX
# Method in brief: as §1
# [8] = tested on: HARA
# Method in brief: as §1
# [9] = tested on: HCC-366
# Method in brief: as §1
# [10] = tested on: LK-2
# Method in brief: as §1
# [11] = tested on: LU99A
# Method in brief: as §1
# [12] = tested on: NCI-H1437
# Method in brief: as §1
# [13] = tested on: NCI-H1650
# Method in brief: as §1
# [14] = tested on: NCI-H1666
# Method in brief: as §1
# [15] = tested on: NCI-H2009
# Method in brief: as §1
# [16] = tested on: NCI-H2170
# Method in brief: as §1
# [17] = tested on: NCI-H3122
# Method in brief: as §1
# [18] = tested on: NCI-H441
# Method in brief: as §1
# [19] = tested on: NCI-H661
# Method in brief: as §1
# [20] = tested on: NCI-H727
# Method in brief: as §1
# [21] = tested on: NCI-H838
# Method in brief: as §1
# [22] = tested on: PC-14
# Method in brief: as §1
structure (smiles),measurement,setting,value
Oc1nc(-c2ccc(C(F)(F)F)cc2)nc2c1CSCC2 [XAV939] + C[C@@H](Oc1cc(-c2cnn(C3CCNCC3)c2)cnc1N)c1c(Cl)ccc(F)c1Cl [Crizotinib] (partner 1 µM),relative viability,[1]; first compound 0.08 µM,0.995
same,relative viability,[1]; first compound 0.253 µM,1.03
same,relative viability,[1]; first compound 0.8 µM,0.94
same,relative viability,[1]; first compound 2.53 µM,0.866
same,relative viability,[2]; first compound 0.08 µM,1.32
same,relative viability,[2]; first compound 0.253 µM,0.905
same,relative viability,[2]; first compound 0.8 µM,0.908
same,relative viability,[2]; first compound 2.53 µM,0.603
same,relative viability,[3]; first compound 0.08 µM,0.868
same,relative viability,[3]; first compound 0.253 µM,0.788
same,relative viability,[3]; first compound 0.8 µM,0.978
same,relative viability,[4]; first compound 0.08 µM,0.687
same,relative viability,[4]; first compound 0.253 µM,0.449
same,relative viability,[4]; first compound 0.8 µM,0.419
same,relative viability,[4]; first compound 2.53 µM,0.56
same,relative viability,[5]; first compound 0.08 µM,0.821
same,relative viability,[5]; first compound 0.253 µM,0.762
same,relative viability,[5]; first compound 0.8 µM,0.698
same,relative viability,[5]; first compound 2.53 µM,0.621
same,relative viability,[6]; first compound 0.08 µM,0.77
same,relative viability,[6]; first compound 0.253 µM,0.675
same,relative viability,[6]; first compound 0.8 µM,0.671
same,relative viability,[6]; first compound 2.53 µM,0.555
same,relative viability,[7]; first compound 0.08 µM,1.09
same,relative viability,[7]; first compound 0.253 µM,0.95
same,relative viability,[7]; first compound 0.8 µM,0.975
same,relative viability,[7]; first compound 2.53 µM,0.586
same,relative viability,[8]; first compound 0.08 µM,1.14
same,relative viability,[8]; first compound 0.253 µM,0.785
same,relative viability,[8]; first compound 0.8 µM,1.05
same,relative viability,[8]; first compound 2.53 µM,0.932
same,relative viability,[9]; first compound 0.08 µM,0.66
same,relative viability,[9]; first compound 0.253 µM,0.56
same,relative viability,[9]; first compound 0.8 µM,0.52
same,relative viability,[9]; first compound 2.53 µM,0.466
same,relative viability,[10]; first compound 0.08 µM,0.178
same,relative viability,[10]; first compound 0.253 µM,0.224
same,relative viability,[10]; first compound 0.8 µM,0.181
same,relative viability,[10]; first compound 2.53 µM,0.207
same,relative viability,[11]; first compound 0.08 µM,0.539
same,relative viability,[11]; first compound 0.253 µM,0.55
same,relative viability,[11]; first compound 0.8 µM,0.567
same,relative viability,[11]; first compound 2.53 µM,0.504
same,relative viability,[12]; first compound 0.08 µM,1.03
same,relative viability,[12]; first compound 0.253 µM,0.915
same,relative viability,[12]; first compound 0.8 µM,0.947
same,relative viability,[12]; first compound 2.53 µM,0.788
same,relative viability,[13]; first compound 0.08 µM,1.1
same,relative viability,[13]; first compound 0.253 µM,0.699
same,relative viability,[13]; first compound 0.8 µM,0.948
same,relative viability,[13]; first compound 2.53 µM,0.729
same,relative viability,[14]; first compound 0.08 µM,0.971
same,relative viability,[14]; first compound 0.253 µM,0.64
same,relative viability,[14]; first compound 0.8 µM,0.781
same,relative viability,[14]; first compound 2.53 µM,0.473
same,relative viability,[15]; first compound 0.08 µM,1.12
same,relative viability,[15]; first compound 0.253 µM,1.04
same,relative viability,[15]; first compound 0.8 µM,1.01
same,relative viability,[15]; first compound 2.53 µM,0.96
same,relative viability,[16]; first compound 0.08 µM,1.28
same,relative viability,[16]; first compound 0.253 µM,1.01
same,relative viability,[16]; first compound 0.8 µM,1.02
same,relative viability,[16]; first compound 2.53 µM,0.921
same,relative viability,[17]; first compound 0.08 µM,0.286
same,relative viability,[17]; first compound 0.253 µM,0.27
same,relative viability,[17]; first compound 0.8 µM,0.238
same,relative viability,[17]; first compound 2.53 µM,0.234
same,relative viability,[18]; first compound 0.08 µM,0.986
same,relative viability,[18]; first compound 0.253 µM,0.724
same,relative viability,[18]; first compound 0.8 µM,0.66
same,relative viability,[18]; first compound 2.53 µM,0.779
same,relative viability,[19]; first compound 0.08 µM,0.922
same,relative viability,[19]; first compound 0.253 µM,0.961
same,relative viability,[19]; first compound 0.8 µM,0.953
same,relative viability,[19]; first compound 2.53 µM,0.969
same,relative viability,[20]; first compound 0.08 µM,0.812
same,relative viability,[20]; first compound 0.253 µM,0.566
same,relative viability,[20]; first compound 0.8 µM,0.722
same,relative viability,[20]; first compound 2.53 µM,0.765
same,relative viability,[21]; first compound 0.08 µM,0.875
same,relative viability,[21]; first compound 0.253 µM,0.719
same,relative viability,[21]; first compound 0.8 µM,0.759
same,relative viability,[21]; first compound 2.53 µM,0.432
same,relative viability,[22]; first compound 0.08 µM,0.97
same,relative viability,[22]; first compound 0.253 µM,0.818
same,relative viability,[22]; first compound 0.8 µM,0.834
same,relative viability,[22]; first compound 2.53 µM,0.749
